Laboratory results: PubChem BioAssay (NCI)
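Tested at 5 concentrations; 48 h exposure; 96-well plates; endpoints linearly interpolated, else capped at highest concentration. TGI marks complete inhibition of growth.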

Experiments:
Assay in all cases: NCI tumour cell line growth inhibition, 48 h
MDA-N = tested on: MDA-N
BT-549 breast = tested on: BT-549 breast
MDA-MB-435 = tested on: MDA-MB-435
P388 leukemia = tested on: P388 leukemia
HL-60(TB) leukemia = tested on: HL-60(TB) leukemia
P388/ADR leukemia = tested on: P388/ADR leukemia
DLD-1 colon = tested on: DLD-1 colon
SN12K1 renal = tested on: SN12K1 renal
HOP-18 NSCLC = tested on: HOP-18 NSCLC
RXF-631 renal = tested on: RXF-631 renal
LXFL 529 NSCLC = tested on: LXFL 529 NSCLC

Row | SMILES | TGI (BT-549 breast) | TGI (MDA-MB-435) | TGI (HL-60(TB) leukemia) | TGI (DLD-1 colon) | also measured
1 | CC(C)(C)c1cc(C2NC(=O)NC2=O)cc(C(C)(C)C)c1O (stereo not given) | > 100 µM | > 100 µM |  |  | TGI (MDA-N): > 100 µM
2 | CC(=O)OC1C(O)C(C)OC(OC(=O)C2CCC3C(C2)OC2(CC(OC(=O)/C=C/c4ccccc4)C(C)CO2)C32CO2)C1OC1OC(C)C(O)C(O)C1O (stereo not given) |  |  | 0.579 µM | 5.69 µM | TGI (P388 leukemia): 1.39 µM; TGI (P388/ADR leukemia): 113 µM; TGI (SN12K1 renal): 0.0828 µM; TGI (HOP-18 NSCLC): 0.585 µM
3 | COc1cc(-c2coc3c(OC)c(OC4OC(COC5OC(C)C(O)C(O)C5O)C(O)C(O)C4O)c(OC)c(O)c3c2=O)cc(C)c1O (stereo not given) | 45.4 µM | 75.2 µM |  |  | 
4 | O=c1cc2cc(O)[nH]c(=O)c2c(O)[nH]1 |  |  | > 100 µM | > 100 µM | TGI (RXF-631 renal): > 100 µM; TGI (LXFL 529 NSCLC): > 100 µM
